≈ marks a conversion by molar mass, not a printed value.
Tests used:
Type in all cases: functional
Escherichia coli [1] = assay: Antimicrobial activity against Escherichia coli NIHJ JC-2 after 2 days; conditions: 48 h
Klebsiella pneumoniae = assay: Antimicrobial activity against Klebsiella pneumoniae DA after 2 days; conditions: 48 h
Escherichia coli [2] = assay: Antimicrobial activity against Escherichia coli 0-111 after 2 days; conditions: 48 h
Candida albicans = assay: Antimicrobial activity against Candida albicans TA

- MIC (Escherichia coli [1]): 100 µg/mL (≈ 307 µM)
- MIC (Klebsiella pneumoniae): 100 µg/mL (≈ 307 µM)
- MIC (Escherichia coli [2]): 100 µg/mL (≈ 307 µM)
- MIC (Candida albicans): 50 µg/mL (≈ 154 µM)
Compound: CN1[C@@H]([C@@H]2SSC[C@@H]2O)CC[C@@H]1[C@@H]1SSC[C@@H]1O [GERRARDINE]

Source: ChEMBL document CHEMBL1151622, “Occurrence of gerrardine in Cassipourea guianensis” (1984)
